The NIST ThermoML archive (doi:10.1021/acs.jced.5b00407)

Columns and labels:
[1] = refractive index (Na D-line) (dimensionless); mn = molality of the nth substance listed, in mol/kg; settings: 101.3 kPa, Liquid, Standard Abbe refractometry
[2] = mn = molality of the nth substance listed, in mol/kg; settings: 101.3 kPa, Liquid; for viscosity: Capillary tube (Ostwald / Ubbelohde) method; for mass density: Vibrating tube method

O=C([O-])[C@H](O)[C@@H](O)[C@H](O[C@@H]1O[C@H](CO)[C@H](O)[C@H](O)[C@H]1O)[C@H](O)CO.[Na+] [sodium lactobionate] + O
Settings | mass density, [2] [kg/m3] | refractive index, [1] | viscosity, [2] [mPa·s]
288.15 K, m1 = 0.0251 | – | – | 1.157
288.15 K, m1 = 0.0502 | 1010.5 | – | 1.177
288.15 K, m1 = 0.0753 | 1015.2 | – | 1.211
288.15 K, m1 = 0.1 | 1020.1 | – | 1.257
288.15 K, m1 = 0.126 | 1024.5 | – | 1.286
288.15 K, m1 = 0.151 | 1029.1 | – | 1.332
288.15 K, m1 = 0.176 | 1034.1 | – | 1.374
288.15 K, m1 = 0.201 | 1039 | – | 1.432
293.15 K, m1 = 0.0251 | – | 1.3331 | 1.018
293.15 K, m1 = 0.0502 | 1009.1 | 1.3344 | 1.036
293.15 K, m1 = 0.0753 | 1013.9 | 1.336 | 1.066
293.15 K, m1 = 0.1 | 1018.9 | 1.3376 | 1.106
293.15 K, m1 = 0.126 | 1023.3 | 1.3392 | 1.132
293.15 K, m1 = 0.151 | 1028.1 | 1.3406 | 1.171
293.15 K, m1 = 0.176 | 1033 | 1.3421 | 1.208
293.15 K, m1 = 0.201 | 1037.7 | 1.3435 | 1.26
298.15 K, m1 = 0.0251 | – | 1.3326 | 0.9041
298.15 K, m1 = 0.0502 | 1007.6 | 1.3339 | 0.9201
298.15 K, m1 = 0.0753 | 1012.6 | 1.3354 | 0.9457
298.15 K, m1 = 0.1 | 1017.7 | 1.337 | 0.9824
298.15 K, m1 = 0.126 | 1022.1 | 1.3385 | 1.006
298.15 K, m1 = 0.151 | 1026.9 | 1.34 | 1.041
298.15 K, m1 = 0.176 | 1031.8 | 1.3415 | 1.074
298.15 K, m1 = 0.201 | 1036.4 | 1.343 | 1.119
303.15 K, m1 = 0.0251 | – | 1.3321 | 0.8091
303.15 K, m1 = 0.0502 | 1006.2 | 1.3334 | 0.8233
303.15 K, m1 = 0.0753 | 1011.2 | 1.3348 | 0.8464
303.15 K, m1 = 0.1 | 1016.4 | 1.3364 | 0.8796
303.15 K, m1 = 0.126 | 1020.8 | 1.3378 | 0.9001
303.15 K, m1 = 0.151 | 1025.5 | 1.3393 | 0.9321
303.15 K, m1 = 0.176 | 1030.3 | 1.3409 | 0.9614
303.15 K, m1 = 0.201 | 1035.1 | 1.3425 | 1.002
308.15 K, m1 = 0.0251 | – | 1.3316 | 0.7289
308.15 K, m1 = 0.0502 | 1004.5 | 1.3328 | 0.7415
308.15 K, m1 = 0.0753 | 1009.7 | 1.3342 | 0.7623
308.15 K, m1 = 0.1 | 1014.9 | 1.3357 | 0.7921
308.15 K, m1 = 0.126 | 1019.4 | 1.3371 | 0.8111
308.15 K, m1 = 0.151 | 1023.9 | 1.3387 | 0.8399
308.15 K, m1 = 0.176 | 1028.8 | 1.3403 | 0.8655
308.15 K, m1 = 0.201 | 1033.5 | 1.342 | 0.9029
313.15 K, m1 = 0.0251 | – | 1.331 | 0.6612
313.15 K, m1 = 0.0502 | 1003.1 | 1.3322 | 0.6729
313.15 K, m1 = 0.0753 | 1008.1 | 1.3335 | 0.692
313.15 K, m1 = 0.1 | 1013.3 | 1.335 | 0.7187
313.15 K, m1 = 0.126 | 1017.8 | 1.3364 | 0.7357
313.15 K, m1 = 0.151 | 1022.1 | 1.338 | 0.7622
313.15 K, m1 = 0.176 | 1027.2 | 1.3397 | 0.7851
313.15 K, m1 = 0.201 | 1031.8 | 1.3415 | 0.8191
318.15 K, m1 = 0.0251 | – | 1.3304 | 0.6029
318.15 K, m1 = 0.0502 | 1001.6 | 1.3316 | 0.6136
318.15 K, m1 = 0.0753 | 1006.5 | 1.3329 | 0.6313
318.15 K, m1 = 0.1 | 1011.5 | 1.3343 | 0.6556
318.15 K, m1 = 0.126 | 1015.9 | 1.3357 | 0.6711
318.15 K, m1 = 0.151 | 1020.5 | 1.3373 | 0.6951
318.15 K, m1 = 0.176 | 1025.3 | 1.3391 | 0.7157
318.15 K, m1 = 0.201 | 1030 | 1.3409 | 0.7469
323.15 K, m1 = 0.0251 | – | 1.3297 | 0.5523
323.15 K, m1 = 0.0502 | 999.8 | 1.3309 | 0.5625
323.15 K, m1 = 0.0753 | 1004.7 | 1.3322 | 0.5789
323.15 K, m1 = 0.1 | 1009.5 | 1.3336 | 0.6009
323.15 K, m1 = 0.126 | 1013.9 | 1.3349 | 0.6151
323.15 K, m1 = 0.151 | 1018.4 | 1.3365 | 0.6372
323.15 K, m1 = 0.176 | 1023.2 | 1.3384 | 0.6565
323.15 K, m1 = 0.201 | 1028 | 1.3404 | 0.6849
